Test results as given in patent US9643964B2, “3-(2-aminopyrimidin-4-yl)-5-(3-hydroxypropynyl)-1H-pyrrolo[2,3-C]pyridine derivatives as NIK inhibitors for the treatment of cancer” (Janssen Pharmaceutica NV, priority 2013, dated 2017).

Columns and labels:
[1] = test system: LP-1 cells; assay: Biological Assay C: antiproliferative activity on LP-1 cells (CellTiter-Glo); assay type: cell-based, human; settings: 72 hr treatment, averaged values
Method in brief: (§1)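 Luminescent ATP signal (CellTiter-Glo) measures growth of myeloma cells following a 72 h compound treatment. Values for the time-zero blank are subtracted, and each mean of duplicate wells is given as percentage of the no-drug control.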

[2] = test system: P-IKKα levels in L363 cells; assay: Biological Assay B: effect of compounds on P-IKKα levels in L363 cells; assay type: cell-based; settings: Homo sapiens, L-363, averaged values, read-out: IKKα Cellular IC50
Procedure: Effect of Compounds on P-IKKα Levels in L363 Cells
All compounds tested were dissolved in DMSO and further dilutions were made in culture medium. Final DMSO concentration was 1% (v/v) in cell assays. The human L363 cells (ATCC) were cultured in RPMI 1640 medium supplemented with GlutaMax and 10% fetal calf serum (PAA). Cells were routinely maintained at densities of 0.2×10^6 cells per ml-1×10^6 cells per ml at 37° C. in a humidified 5% CO2 atmosphere. Cells were passaged twice a week splitting back to obtain the low density. Cells were seeded in 96 well plates (Nunc 167008) at 2×10^6 per ml media in a volume of 75 μl per well plus 25 μl 1 μg/ml recombinant human B-cell activating factor BAFF/B1YS/TNFSF13B. Seeded cells were incubated at 37° C. in a humidified 5% CO2 atmosphere for 24 hr. Drugs and/or solvents were added (20 μl) to a final volume of 120 μl. Following 2 hr treatment plates were removed from the incubator and cell lysis was achieved by the addition of 30 μl 5× lysis buffer followed by shaking on a plate shaker at 4° C. for 10 min. At the end of this incubation lysed cells were centrifuged at 800×g for 20 min at 4° C. and the lysate was assessed for P-IKKα levels by sandwich immuno-assay carried out in anti-rabbit antibody coated Mesoscale plates. Within an experiment, the results for each treatment were the mean of 2 replicate wells. For initial screening purposes, compounds were tested using an 8 point dilution curve (serial 1:3 dilutions). For each experiment, controls (containing MG132 and BAFF but no test drug) and a blank incubation (containing MG132 and BAFF and 10 μM ADS125117, a test concentration known to give full inhibition) were run in parallel. The blank incubation value was subtracted from all control and sample values. To determine the IC50 a sigmoidal curve was fitted to the plot of % inhibition of control P-IKKα levels versus Log10 compound concentration.

[3] = test system: JJN-3 cells; assay: Biological Assay C: antiproliferative activity on JJN-3 cells (CellTiter-Glo); assay type: cell-based, human; settings: 72 hr treatment, averaged values
Method in brief: as §1

[4] = test system: L-363 cells; assay: Biological Assay C: antiproliferative activity on L-363 cells (CellTiter-Glo); assay type: cell-based, human; settings: 72 hr treatment, averaged values
Method in brief: as §1

[5] = target: T1, Recombinant Human NF-kappaB-Inducing Kinase (NIK/MAP3K14) (Homo sapiens, UniProt Q99558); assay: Biological Assay A: inhibition of recombinant human NIK/MAP3K14 activity (MBP phosphorylation, Mesoscale); assay type: biochemical; settings: averaged over all measurements on all batches; read-out: Biochemical (MSD MBP) IC50
Procedure: Inhibition of Recombinant Human NF-kappaB-Inducing Kinase (NIK/MAP3K14) Activity
Assay buffer was 50 mM Tris pH 7.5 containing 1 mM EGTA (ethylene glycol tetraacetic acid), 1 mM DTT (dithiothreitol), 0.1 mM Na3VO4, 5 mM MgCl2, 0.01% Tween 20. Assays were carried out in 384 well Mesoscale high binding plates which had been coated with myelin basic protein (MBP) and blocked with bovine serum albumin to prevent non-specific protein binding. All compounds tested were dissolved in dimethyl sulfoxide (DMSO) and further dilutions were made in assay buffer. Final DMSO concentration was 1% (v/v) in assays. Incubations consisted of compound (1% DMSO in control and blank wells), 25 μM Adenosine-5′-triphosphate (ATP), and 10 nM NIK/MAP3K14 substituting enzyme with buffer in the blank wells. Incubations were carried out for 1 h at 25° C. and were followed by washing and sequential incubation with rabbit anti-phospho-MBP and anti-rabbit Ig Sulfotag antibody before reading bound Sulfotag on a Mesoscale Discovery. Signal obtained in the wells containing blank samples was subtracted from all other wells and IC50's were determined by fitting a sigmoidal curve to % inhibition of control versus Log10 compound concentration.

[6] = target: T1, Recombinant Human NF-kappaB-Inducing Kinase (NIK/MAP3K14); assay: Biological Assay A2: inhibition of auto-phosphorylation of recombinant human NIK/MAP3K14 (AlphaScreen); assay type: biochemical; settings: auto-phosphorylation; averaged over all measurements on all batches; read-out: αscreen IC50
Method in brief: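 AlphaScreen readout of anti-phospho-IKK Ser176/180 signal after 1 h, 25° C. incubation of 0.2 nM GST-NIK with compound and 25 microM ATP (Tris pH 7.5 buffer, MgCl2, 1% DMSO final). IC50 from sigmoidal fit of blank-corrected % inhibition against Log10 concentration.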

T1 sequence (Q99558 whole entry): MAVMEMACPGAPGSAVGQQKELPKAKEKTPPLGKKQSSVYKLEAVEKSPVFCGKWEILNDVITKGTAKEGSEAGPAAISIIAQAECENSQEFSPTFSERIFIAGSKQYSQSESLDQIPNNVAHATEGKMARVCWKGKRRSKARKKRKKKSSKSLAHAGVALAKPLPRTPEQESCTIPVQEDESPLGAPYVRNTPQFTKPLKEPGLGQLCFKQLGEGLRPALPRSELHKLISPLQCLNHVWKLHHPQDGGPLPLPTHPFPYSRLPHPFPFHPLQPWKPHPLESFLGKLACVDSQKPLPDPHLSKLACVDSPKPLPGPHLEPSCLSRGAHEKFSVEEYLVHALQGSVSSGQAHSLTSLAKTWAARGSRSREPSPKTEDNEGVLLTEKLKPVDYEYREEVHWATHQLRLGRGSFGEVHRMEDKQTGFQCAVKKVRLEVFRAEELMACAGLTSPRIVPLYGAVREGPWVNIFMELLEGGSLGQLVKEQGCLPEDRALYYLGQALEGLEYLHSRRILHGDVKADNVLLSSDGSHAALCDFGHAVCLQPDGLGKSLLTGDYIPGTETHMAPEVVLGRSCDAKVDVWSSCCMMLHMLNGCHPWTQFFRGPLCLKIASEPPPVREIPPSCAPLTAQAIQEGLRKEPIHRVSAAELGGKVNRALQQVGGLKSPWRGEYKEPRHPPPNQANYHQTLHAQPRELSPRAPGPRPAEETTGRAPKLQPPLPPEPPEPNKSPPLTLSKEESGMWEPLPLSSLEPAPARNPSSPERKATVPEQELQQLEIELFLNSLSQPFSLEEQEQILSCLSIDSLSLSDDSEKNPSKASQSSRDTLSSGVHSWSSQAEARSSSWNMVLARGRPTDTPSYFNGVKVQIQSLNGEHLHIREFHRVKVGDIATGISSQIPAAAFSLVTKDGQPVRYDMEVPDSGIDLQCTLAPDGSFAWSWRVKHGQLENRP

| SMILES | EC50 ([1]; Homo sapiens, LP-1, 72 h) [nM] | IC50 [2] [nM] | EC50 ([3]; Homo sapiens, JJN-3, 72 h) [nM] | EC50 ([4]; Homo sapiens, L-363, 72 h) [nM] | IC50 [5] [nM] | IC50 [6] [nM] | EC50 [1] [nM] | EC50 [3] [nM] | EC50 [4] [nM] |
| --- | --- | --- | --- | --- | --- | --- | --- | --- | --- |
| CC(C)(O)C#Cc1cc2c(-c3nc(N)ncc3C(F)(F)F)c[nH]c2cn1 [Compound 61] | 4600 | 23 | 260 | 340 | 3.8 | 5 |  |  |  |
| COCCn1cc(-c2ccnc(N)n2)c2cc(C#CC(C)(O)C3CC3)ncc21 (stereo not shown) [Compound 32] | 1500 | 89 | 460 | 740 | 59 | 40 |  |  |  |
| CC(C)(O)C#Cc1cc2c(-c3ccnc(N)n3)cn(CCCN3CC(=O)NC3=O)c2cn1 [Compound 117] | > 10000 | 3400 | 3300 | 9000 | 100 | 14 |  |  |  |
| COCCn1cc(-c2nc(N)ncc2Cl)c2cc(C#CC(C)(O)c3nccs3)ncc21 (stereo not shown) [Compound 20] | 11000 | 30 | 1000 | 5000 | 9.4 | 15 |  |  |  |
| CN(C)C(=O)Cn1cc(-c2ccnc(N)n2)c2cc(C#CC(C)(C)O)ncc21 [Compound 30] | > 10000 | 1700 | 12000 | 24000 | 120 | 930 |  |  |  |
| CC(C)(O)C#Cc1cc2c(-c3ccnc(N)n3)cn(CC3CCOCC3)c2cn1 [Compound 55] | 11000 | 140 | 380 | 980 | 84 | 180 |  |  |  |
| CC(O)(C#Cc1cc2c(-c3nc(N)ncc3F)cn(C3COC3)c2cn1)C1CC1 (stereo not shown) [Compound 97] | 1200 | 70 | 170 | 100 |  | 21 |  |  |  |
| Cn1cc(-c2ccnc(N)n2)c2cc(C#CC(C)(C)O)ncc21 [Compound 5] | 320 | 30 | 160 | 94 | 1.6 | 8 |  |  |  |
| CN1CC(n2cc(-c3ccnc(N)n3)c3cc(C#CC(C)(C)O)ncc32)C1 [Compound 34] | 4100 | 160 | 330 | 240 | 76 | 42 |  |  |  |
| CC(C)n1cc(-c2nc(N)ncc2Cl)c2cc(C#CC(C)(O)c3nccs3)ncc21 (stereo not shown) [Compound 17] | 8000 | 17 | 460 | 810 | 4.9 | 6 |  |  |  |
| CC(C)(O)C#Cc1cc2c(-c3nc(N)ncc3Cl)cn(CC(C)(C)O)c2cn1 [Compound 24] | 760 | 13 | 140 | 96 | 8.7 | 15 |  |  |  |
| CC(C)(O)C#Cc1cc2c(-c3ccnc(N)n3)c[nH]c2cn1 [Compound 1] | 3200 | 93 | 200 | 180 | 6.9 | 4 |  |  |  |
| CNc1ncc(Cl)c(-c2cn(CC(C)(C)O)c3cnc(C#CC(C)(C)O)cc23)n1 [Compound 58] | 2000 | 110 | 550 | 500 | 430 | 700 |  |  |  |
| COCCn1cc(-c2ccnc(N)n2)c2cc(C#CC(C)(C)O)ncc21 [Compound 2] | 1900 | 82 | 220 | 210 | 9.7 | 48 |  |  |  |
| CC(C)(O)C#Cc1cc2c(-c3ccnc(N)n3)cn(CC3COC3)c2cn1 [Compound 28] | 5800 | 84 | 1200 | 810 | 17 | 49 |  |  |  |
| COCCCn1cc(-c2nc(N)ncc2F)c2cc(C#CC(C)(O)C3CC3)ncc21 (single isomer, unassigned) [Compound 120] |  | 20 |  |  |  | 17 | 200 | 95 | 74 |
| CC(O)(C#Cc1cc2c(-c3nc(N)ncc3F)cn(C3COC3)c2cn1)C1CC1 (single isomer, unassigned) [Compound 122] |  | 36 |  |  |  | 26 | 310 | 100 | 69 |
| CN1CC(n2cc(-c3nc(N)ncc3F)c3cc(C#CC(C)(O)C4CC4)nc(C4CC4)c32)C1 (stereo not shown) [Compound 102] | 65 | 32 | 35 | 21 |  | 900 |  |  |  |
| CC(O)(C#Cc1cc2c(-c3nc(N)ncc3F)cn(C3COC3)c2c(C2CC2)n1)C1CC1 (stereo not shown) [Compound 98] | 210 | 110 | 78 | 42 |  | 220 |  |  |  |
| CN(C)C(=O)n1cc(-c2nc(N)ncc2F)c2cc(C#CC(C)(O)C3CC3)ncc21 (stereo not shown) [Compound 103] | 680 | 49 | 91 | 48 |  | 13 |  |  |  |
| COCCCn1cc(-c2nc(N)ncc2F)c2cc(C#CC(C)(C)O)ncc21 [Compound 76] | 300 | 12 | 140 | 110 |  | 16 |  |  |  |
| CC(C)(O)C#Cc1cc2c(-c3nc(N)ncc3C(F)(F)F)cn(CC3CCOCC3)c2cn1 [Compound 71] | 2600 |  | 550 | 520 | 26 | 61 |  |  |  |
